In publication PMC11249646, “Small-Molecule Disruptors of the Interaction between Calcium- and Integrin-Binding Protein 1 and Integrin αIIbβ3 as Novel Antiplatelet Agents” (ACS Pharmacology & Translational Science, 2024):
Read-outs that look alike come from different tables or passages of the source.

Columns and labels:
[1] = target: T1, CIB1-(His)6 : F-αIIb peptide (Homo sapiens, UniProt Q99828); test: MST competitive binding study; conditions: 200 nM F-αIIb, 4 μM CIB1-(His)6; n = 3/concentration
T1 construct: made in house
T1 sequence (Q99828 1-191): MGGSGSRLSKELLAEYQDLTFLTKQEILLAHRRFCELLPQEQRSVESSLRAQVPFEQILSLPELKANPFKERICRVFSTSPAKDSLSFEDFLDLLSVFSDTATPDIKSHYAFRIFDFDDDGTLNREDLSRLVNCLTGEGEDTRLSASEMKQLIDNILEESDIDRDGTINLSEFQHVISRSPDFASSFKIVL
Experimental: We sought to resolve this discrepancy by performing a competition binding study similar to the conditions of the FP HTS assay by utilizing the F-αIIb probe.
Figure 4 MST competitive binding assay. We selected 200 nM F-αIIb and a CIB1 concentration of 4 μM and tested both compounds. […] Panel (B) highlights the concentration range in which we observe different activities between the two compounds.
The binding affinity of the compounds to the CIB1-(His)6 protein in the presence of αIIb peptide was evaluated using FITC-labeled αIIb as well. Following manufacturer’s recommendation,[66] we first determined a minimum concentration of F-αIIb by performing a titration of the fluorophore (1 μM, 1:2, 8-points; final concentration range of 7.8 nM to 1 μM) in a 10 μL assay volume. Solutions were placed in standard capillaries and evaluated for the fluorescent signal using the Monolith NT.115 instrument. […] CIB1-(His)6 protein was titrated in a 2-fold dilution series (16-points, final concentration range of 15 nM to 500 μM), at a final volume of 12.5 μL. An equal volume of [2×] […] Solutions were placed in standard capillaries, incubated for approximately 1 h, and evaluated for a fluorescent signal with 50% LED excitation power, 20, 40, or 60% MST power (low, medium, high, respectively), MST on-time of 30 s, and off-time of 5 s.
Compounds were titrated in a 2-fold dilution series (16 points, final concentration range of 6.1 nM to 200 μM) and mixed with an equal volume CIB1-(His)6 protein and F-αIIb peptide (final concentrations of 4 μM and 200 nM, respectively). Solutions were incubated for 1 h at RT, then placed in standard capillaries, and evaluated for fluorescent signal (in triplicate) at the following parameters: 50% LED excitation power, 40% MST power, MST on-time of 30 s, and off-time of 5 s using Monolith NT.115 instrument. Dissociation constant (Kd) values were calculated by fitting the thermophoresis signal at 20 s of the thermograph using the MO Affinity Analysis software (Nanotemper Technologies, Munich, Germany) and confirmed using Graphpad Prism 7.

[2] = target: T2, GST-CIB1 : F-scrambled peptide (Homo sapiens, UniProt Q99828); test: FP scrambled-peptide counter screen, 384-well format; format: binding; conditions: F-scrambled peptide
T2 construct: made in house; host or cells: BL-21 plus RIL cells (E. coli)
T2 sequence (Q99828 1-191): T1 sequence (Q99828 1-191)

[3] = In vitro ADME: RLM stability; conditions: rat liver microsomes; read-out: Rat Liver Microsome Stability (t1/2)
[4] = target: T3, CIB1 and αIIb interaction (GST-CIB1 : F-αIIb peptide) (Homo sapiens, UniProt Q99828); test: FP assay, 384-well format (screen); format: binding; parameters: 384-well SCREEN Efficacy (%): concentration or dose not given beside the values
T3 construct: made in house; host or cells: BL-21 plus RIL cells (E. coli)
T3 sequence (Q99828 1-191): T1 sequence (Q99828 1-191)

## COc1ccccc1C(=O)c1no[n+]([O-])c1C(=O)c1ccccc1OC.O=C(O)C(F)(F)F [NCGC00351170-01]
[1]
  EC50: 2.1 µM
[2]
  384-well COUNTERSCREEN Efficacy (%): 34%
[2]; *: Curve in opposite direction
  384-well COUNTERSCREEN Confirm?: Inconclusive
[2]; read-out: 384-well COUNTERSCREEN IC50
  IC50: 8.9 µM
[3]
  half-life: 1.52 min
[4]; 384-well FP assay, Table 1, read-out: FP assay IC50
  IC50: 4.19 µM
[4]; F-αIIb peptide
  384-well SCREEN Efficacy (%): 57%
[4]; F-αIIb peptide, YES/NO
  384-well SCREEN Confirm?: YES
[4]; F-αIIb peptide, read-out: 384-well SCREEN IC50
  IC50: 7.9 µM
[4]; quoted in text for comparison with MST EC50, read-out: potency in the 384-well FP assays
  IC50: ~4 µM
[4]; selective toward αIIb: negative curve class and/or IC50 ratio of >3-fold and/or >2-fold efficacy vs scrambled peptide
  Confirm and Selective?: Inconclusive
